From publication PMC8391421, “Identification of Novel Positive Allosteric Modulators of Neurotrophin Receptors for the Treatment of Cognitive Dysfunction” (Cells, 2021)
pEC50: −log10 of the molar value. “Also recorded” adds a separate entry of the source.

Experiments:
[1] = target: T1, fibroblast growth factor receptor (FGFR1) (Homo sapiens, UniProt P11362); experiment: FGFR1 PathHunter cell-based assay (U2OS-FGFR1)
T1 construct: host or cells: U2OS (human osteosarcoma)
Source text: (§1) The human osteosarcoma cell lines U2OS-TrkA/p75, U2OS-TrkB/p75, U2OS-TrkC/p75, U2OS-ratTrkA/p75, U2OS-FGFR1 (fibroblast growth factor receptor 1) as well as the human embryonic kidney cell line HEK293-IGF1R (insulin-like growth factor 1 receptor) from DiscoverX, Birmingham, United Kingdom, were used in the in vitro experiments. Eagle’s minimum essential medium (EMEM) ATCC #30-2003 from LGC Standards AB, Borås, Sweden; Leibovitz’s L15 medium, RPMI1640, fetal bovine serum, horse serum, penicillin/streptomycin, and Hoechst dye purchased from Invitrogen, Gothenburg, Sweden, were also used. Black poly-D-lysine coated 384-well plates (Viewplate) were purchased from PerkinElmer, Upplands Väsby, Sweden, and white 384-well assay plates(3570) were purchased from Corning, Amsterdam, Netherlands. […] Recombinant intracellular domain (ICD) of TrkA (08-186) and single site biotinylated activated (08-486-20N) or non-activated TrkA (08-486-23N) were obtained from Carna Biosciences, Odense, Denmark. […]
(§2) U2OS cells were maintained subconfluent in EMEM supplemented with 10% FBS and penicillin/streptomycin/hygromycin and G418. […] The functional (complemented) β-gal will hydrolyze a substrate to generate a luminescence signal. The generated luminescence was read using an EnVision plate reader from PerkinElmer, Upplands Väsby, Sweden, or an ID5 plate reader from Molecular Devices, Berkshire, RG41 5TS UK. […]

C57BL/6J mice = experiment: Morris water maze; type: in vivo, mouse
Description: Male C57BL/6J mice (n = 8/group) from Taconic, Lille Skensved, Denmark, 7–8 weeks of age at arrival, were used in experiments that were predominantly performed as described previously. Vehicle or ACD855 (3 mg/kg; formulated in 20% DMSO in 0.1 M sodium phosphate buffer pH 8.0) was administered daily for the first four days (Day 1–4) through subcutaneous (s.c.) injections (10 mL/kg body weight). During the behavioral training days (Day 5–10), ACD855 or vehicle was administered s.c. 60 min prior to training. Moreover, during the behavioral training days, scopolamine (0.3 mg/kg) or vehicle was administered s.c. 30 min prior to training.

TrkA = target: T2, TrkA (Homo sapiens, UniProt P04629); experiment: TrkA PathHunter cell-based assay (U2OS-TrkA/p75)
T2 construct: host or cells: U2OS (human osteosarcoma), co-expressing p75 and SHC-1 fused to the enzyme acceptor
T2 sequence (P04629 33-796): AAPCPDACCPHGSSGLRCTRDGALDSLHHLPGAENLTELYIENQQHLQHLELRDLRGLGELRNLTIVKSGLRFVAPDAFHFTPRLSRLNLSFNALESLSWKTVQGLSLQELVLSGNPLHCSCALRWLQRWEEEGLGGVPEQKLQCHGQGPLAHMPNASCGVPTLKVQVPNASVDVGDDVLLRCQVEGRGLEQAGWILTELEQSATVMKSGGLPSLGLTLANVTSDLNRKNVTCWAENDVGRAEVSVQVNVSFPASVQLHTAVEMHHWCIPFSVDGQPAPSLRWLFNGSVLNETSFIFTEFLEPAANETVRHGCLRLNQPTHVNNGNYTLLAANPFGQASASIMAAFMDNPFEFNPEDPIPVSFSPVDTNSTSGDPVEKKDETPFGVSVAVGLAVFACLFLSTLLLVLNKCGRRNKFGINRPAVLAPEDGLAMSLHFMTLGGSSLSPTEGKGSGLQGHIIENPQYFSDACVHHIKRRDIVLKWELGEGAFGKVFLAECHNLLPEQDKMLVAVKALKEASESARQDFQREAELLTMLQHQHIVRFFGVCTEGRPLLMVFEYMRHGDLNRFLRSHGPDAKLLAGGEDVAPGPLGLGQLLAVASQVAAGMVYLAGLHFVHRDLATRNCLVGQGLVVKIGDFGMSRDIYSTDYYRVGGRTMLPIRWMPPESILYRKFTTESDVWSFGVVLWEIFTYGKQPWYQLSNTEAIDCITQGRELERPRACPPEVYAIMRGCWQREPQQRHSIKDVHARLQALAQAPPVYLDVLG
Description: U2OS cells were maintained subconfluent in EMEM supplemented with 10% FBS and penicillin/streptomycin/hygromycin and G418. One day prior to the experiment, 5000 cells of EMEM supplemented with 0.5% horse serum were seeded in each well of a 384-well white plate. The assay was performed as previously described. Briefly, the TrkA or TrkB cell-based PathHunter® assays use enzyme fragment complementation (EFC) technology for the complementation of two β-galactosidase (β-gal) fragments in order to study protein–protein interactions. Upon activation with ligand, TrkA or TrkB are phosphorylated on several tyrosine residues, including tyrosine 490, leading to an interaction with SHC-1. In the PathHunter® assays, the Trk-receptors are fused to an enzyme donor tag, and SHC-1 is fused to a larger part of β-gal called an enzyme acceptor. The interactions between the recombinant enzyme donor, i.e., the Trk-receptor, with an enzyme acceptor, i.e., SHC-1, leads to an active β-gal enzyme. The functional (complemented) β-gal will hydrolyze a substrate to generate a luminescence signal. The generated luminescence was read using an EnVision plate reader from PerkinElmer, Upplands Väsby, Sweden, or an ID5 plate reader from Molecular Devices, Berkshire, RG41 5TS UK. […] Min- and Max-control wells were included on each plate.
Both Toltrazuril and Ponazuril are registered veterinary products prescribed for parasitic infections in animals. […] The activation of Trk-receptors leads to an intracellular interaction between the Trk-receptor and SHC-1 and thereby to the complementation of β-gal, which will render in a functional enzyme. β-gal will hydrolyze a substrate to generate luminescence, which is proportional to the number of activated receptors.

TrkC = target: T3, TrkC (Homo sapiens, UniProt Q16288); experiment: TrkC PathHunter cell-based assay (U2OS-TrkC/p75)
T3 construct: host or cells: U2OS (human osteosarcoma), co-expressing p75
T3 sequence (Q16288 32-839): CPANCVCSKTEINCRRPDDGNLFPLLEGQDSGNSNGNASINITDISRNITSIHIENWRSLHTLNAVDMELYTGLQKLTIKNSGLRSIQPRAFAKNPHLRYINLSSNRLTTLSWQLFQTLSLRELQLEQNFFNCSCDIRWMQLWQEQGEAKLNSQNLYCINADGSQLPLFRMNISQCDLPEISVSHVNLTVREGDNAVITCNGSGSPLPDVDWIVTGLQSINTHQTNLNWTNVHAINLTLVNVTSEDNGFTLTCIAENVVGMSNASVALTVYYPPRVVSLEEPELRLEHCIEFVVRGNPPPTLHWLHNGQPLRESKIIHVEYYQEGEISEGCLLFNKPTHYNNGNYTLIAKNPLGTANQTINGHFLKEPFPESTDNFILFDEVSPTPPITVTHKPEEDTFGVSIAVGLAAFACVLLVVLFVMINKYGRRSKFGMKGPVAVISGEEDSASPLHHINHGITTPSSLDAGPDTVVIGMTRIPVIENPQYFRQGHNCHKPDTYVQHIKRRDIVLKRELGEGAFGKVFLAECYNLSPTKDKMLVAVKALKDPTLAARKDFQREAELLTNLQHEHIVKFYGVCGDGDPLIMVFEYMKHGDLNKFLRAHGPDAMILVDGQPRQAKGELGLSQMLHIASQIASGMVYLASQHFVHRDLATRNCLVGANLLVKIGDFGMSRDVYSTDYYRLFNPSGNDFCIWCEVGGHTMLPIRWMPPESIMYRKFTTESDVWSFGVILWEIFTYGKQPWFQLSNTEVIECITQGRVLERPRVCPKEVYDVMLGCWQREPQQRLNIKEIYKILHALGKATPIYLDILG
Source text: as §1, §2

T1 sequence (P11362 22-822): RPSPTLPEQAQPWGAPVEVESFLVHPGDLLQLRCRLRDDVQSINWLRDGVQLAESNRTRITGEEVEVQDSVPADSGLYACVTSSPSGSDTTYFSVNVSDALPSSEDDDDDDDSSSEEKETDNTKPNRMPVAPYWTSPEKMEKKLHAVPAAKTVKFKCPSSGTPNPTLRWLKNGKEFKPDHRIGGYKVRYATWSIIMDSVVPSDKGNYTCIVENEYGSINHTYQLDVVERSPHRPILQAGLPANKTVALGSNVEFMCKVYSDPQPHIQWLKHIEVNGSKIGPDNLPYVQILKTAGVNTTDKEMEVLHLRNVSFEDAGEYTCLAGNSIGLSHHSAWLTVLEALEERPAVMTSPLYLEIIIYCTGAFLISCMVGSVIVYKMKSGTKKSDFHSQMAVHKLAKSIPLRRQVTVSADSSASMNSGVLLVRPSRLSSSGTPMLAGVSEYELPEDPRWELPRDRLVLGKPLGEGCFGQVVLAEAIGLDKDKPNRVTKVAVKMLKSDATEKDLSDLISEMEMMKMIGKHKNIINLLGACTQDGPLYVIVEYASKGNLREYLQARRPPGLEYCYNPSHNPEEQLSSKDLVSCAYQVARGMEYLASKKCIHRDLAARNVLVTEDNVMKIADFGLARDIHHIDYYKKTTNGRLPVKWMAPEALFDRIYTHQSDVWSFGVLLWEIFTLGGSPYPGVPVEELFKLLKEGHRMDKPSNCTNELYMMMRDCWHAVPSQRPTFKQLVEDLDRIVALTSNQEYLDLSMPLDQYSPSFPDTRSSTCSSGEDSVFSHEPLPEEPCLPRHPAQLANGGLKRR

Question: How did the pEC50 [1] turn out when Cc1cc(-n2c(=O)[nH]c(=O)n(C)c2=O)ccc1Oc1ccc(S(=O)(=O)C(F)(F)F)cc1 [ACD855, Toltrazuril-sulfone] was run?
Answer: 6.10

Question: What about the “FGFR1 Effect (efficacy)” value [1] of the same compound?
Answer: 44%

Question: What about the “effect of compound by itself on cognitive function (swim latency, Day 1)” value (C57BL/6J mice; 3 mg/kg s.c., no scopolamine, vs vehicle) of the same compound?
Answer: seemed to improve cognitive function compared to vehicle; also recorded: improved cognitive function compared to vehicle

Question: What about the “effect on scopolamine-induced cognitive impairment (swim latency)” value (C57BL/6J mice; 3 mg/kg s.c., scopolamine 0.3 mg/kg) of the same compound?
Answer: significantly blocked; also recorded: completely blocked

Question: What about the “retention test (probe trial)” value (C57BL/6J mice; control vs treated groups) of the same compound?
Answer: only an improvement trend

Question: And the swim speed (C57BL/6J mice; control vs treated groups)?
Answer: no significant differences

Question: What about the “modulation of TrkA activity over NGF dose-response curve” value (TrkA; 0.3, 1 and 3 µM compound with a wide range of NGF concentrations) of the same compound?
Answer: positively modulated TrkA activity

Question: What about the pEC50 (TrkA; PathHunter cell-based assay) of the same compound?
Answer: 5.72

Question: What about the “TrkA Effect (efficacy)” value (TrkA; PathHunter cell-based assay) of the same compound?
Answer: 144%

Question: What about the “activation of TrkA-receptor by compound itself” value (TrkA; without ligand, 100% = 30 ng/mL ligand) of the same compound?
Answer: 45%

Question: What about the pEC50 (TrkC) of the same compound?
Answer: 6.10

Question: And the “TrkC Effect (efficacy)” value (TrkC)?
Answer: 56%
